Test results reported in US20210290575A1, “METHODS AND COMPOSITIONS FOR IDENTIFICATION AND MODULATION OF MICROBIOME BIOCHEMICAL PATHWAYS TO ALTER PHENOTYPE” (Cybele Microbiome, Inc., priority 2017, published 2021).

Tested on: Rhipicephalus microplus
Assay: Tick repellency of compounds produced on tick-resistant versus tick-susceptible cattle breeds
Conditions: compound produced on host; ticks on cattle (Nelore vs Holstein)
Text: The tick Rhipicephalus microplus specializes on cattle and other large bovids. However, success of its blood-feeding depends on the breed of the bovine host. In an indicine and a taurine breed of cattle that present contrasting phenotypes of infestation, Nelore and Holstein, respectively, resistant and susceptible to tick infestations as ascertained by the number of ticks and the reproductive success of female ticks completing their life-cycles on these two types of host.
At the same time, different levels of host immunity may affect the composition of tick saliva, contributing to these outcomes.

## CC(=O)CCC=C(C)C [6-methyl-5-hepten-2-one]
  repellency (result in words): repellent
